Laboratory results from patent US20100160369A1, “S1P1 Agonists and Methods of Making And Using” (EXELIXIS, INC., priority 2008, published 2010).

How the values were obtained:
S1P1 [1] = target: T1, S1P1 (Homo sapiens, UniProt P21453); test: Tango β-arrestin Recruitment Assay in U2OS cells (Assay 2b); type: cell-based; set-up: linker with TEV protease (N1a) cleavage site (C); details: Tango β-arrestin Recruitment Assay, read-out: Assay 2b EC50
How it was run: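 U2OS cells expressing S1P1 and reporter, serum-starved 48 h, treated with compound (10-point 3-fold series, top 1 μM, 1% DMSO) overnight at 37 °C; β-lactamase substrate added 2 h at room temperature. F460/F530 ratio normalised to 1 μM S1P (100%) and DMSO; EC50 from concentration-response.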
Target sequence in this assay (P21453 whole entry): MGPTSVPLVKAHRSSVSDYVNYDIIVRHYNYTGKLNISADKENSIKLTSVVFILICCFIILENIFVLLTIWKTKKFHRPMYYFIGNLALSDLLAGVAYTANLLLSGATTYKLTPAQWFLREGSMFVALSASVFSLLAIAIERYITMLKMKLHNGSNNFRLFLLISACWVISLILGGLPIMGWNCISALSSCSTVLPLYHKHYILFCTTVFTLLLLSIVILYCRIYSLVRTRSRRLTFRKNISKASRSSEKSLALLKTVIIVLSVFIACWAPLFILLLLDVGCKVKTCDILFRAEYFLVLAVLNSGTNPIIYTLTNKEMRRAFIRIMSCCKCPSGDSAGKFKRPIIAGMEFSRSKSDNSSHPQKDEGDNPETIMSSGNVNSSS
Target sequence in this assay (P32121 whole entry partner): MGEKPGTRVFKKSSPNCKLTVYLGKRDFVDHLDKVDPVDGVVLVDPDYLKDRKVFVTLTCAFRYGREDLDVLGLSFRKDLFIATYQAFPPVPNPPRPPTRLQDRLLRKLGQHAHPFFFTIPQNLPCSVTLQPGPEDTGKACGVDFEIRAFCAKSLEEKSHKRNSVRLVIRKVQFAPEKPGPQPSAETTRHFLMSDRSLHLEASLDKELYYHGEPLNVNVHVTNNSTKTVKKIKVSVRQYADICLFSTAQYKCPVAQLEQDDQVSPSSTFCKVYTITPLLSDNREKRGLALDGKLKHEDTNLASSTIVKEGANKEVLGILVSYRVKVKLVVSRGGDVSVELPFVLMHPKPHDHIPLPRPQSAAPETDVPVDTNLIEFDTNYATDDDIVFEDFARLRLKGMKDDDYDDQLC

S1P1 [2] = target: T1, S1P1; test: CNG cAMP Assay (Assay 1); type: cell-based; set-up: host or cells: HEK293 cells expressing the CNG channel; details: read-out: Assay 1 EC50
How it was run: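 HEK293 cells expressing CNG channel and S1P1, membrane-potential dye loaded; compounds (top 10 μM, 10-point 3-fold, 1.8% DMSO) added with 25 μM Ro 20-1724, 500 nM NECA and 10 nM S1P for 90 min. T90/T0 fluorescence (Ex 350/Em 590 nm) normalised to NECA-alone vs DMSO; EC50 fitted.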
Target sequence in this assay (P21453 whole entry): as the sequence (P21453 whole entry) above

S1P1 [3] = target: T1, S1P1; test: Tango β-arrestin Recruitment Assay in HEK293 cells (Assay 2a); type: cell-based; set-up: linker with TEV protease (N1a) cleavage site (C); host or cells: HEK293, transiently transfected; details: Tango β-arrestin Recruitment Assay, read-out: Assay 2a EC50
How it was run: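 HEK293 cells transiently expressing S1P1 (TEV-cleavable tTA fusion) with β-arrestin2–TEV; compounds up to 10 μM, 10-point 3-fold, 1% DMSO, 30 min then 16–18 h at 37 °C. Luciferase luminescence normalised to 5 μM S1P as 100% and DMSO as background; EC50 from percent-activity curves.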
Target sequence in this assay (P21453 whole entry): as above
Target sequence in this assay (P32121 whole entry partner): as the sequence (P32121 whole entry partner) above

hS1P1R (hEdg1) = target: T2, hS1P1R (hEdg1) (Homo sapiens, UniProt P21453); test: hS1P1R GTPγS Binding Assay (Assay 3a); type: biochemical
T2 construct: purchased Lonza
Method: The hS1P1R GTPγS binding assay was carried out at room temperature in 96 well non-binding surface assay plates. The reaction in each well contained 4 μg hS1P1R (hEdg1) membrane protein (Lonza), 30 μM GDP, 0.1 nM [^35S]GTPγS, 0.25% fatty acid free BSA, and serially diluted hS1P1R agonist compound in 200 μL assay buffer (25 mM Tris-HCl PH 7.9, 100 mM NaCl, 3 mM MgCl2, and 0.2 mM EGTA). After one hour of incubation, 0.9 mg of WGA (Wheat Germ Agglutinin) SPA beads in 50 μL of assay buffer was added to each well. The SPA beads were spun down after an additional one hour incubation. The radioactivity of the bound GTPγS was counted by reading the assay plate using a MicroBeta.
Assay 1 is the CNG cAMP Assay as described in Biological Example 1. Assay 2a and 2b are the Tango™ β-arrestin Recruitment Assay in HEK293 and U2OS cells, respectively, as described in Biological Example 2. Assay 3a is the hS1P1R GTPγS Binding Assay as described in Biological Example 3. Assay 3b is the GTP-Eu Binding Assay as described in Biological Example 3. EC50's were measured unless otherwise noted. […] In the table, “nt” means the Compound was not tested and “no” means the compound was tested but had no measurable activity under the assay conditions employed.

T2 sequence (P21453 whole entry): as the sequence (P21453 whole entry) above

EC50 (S1P1 [1]) [nM]	EC50 (S1P1 [2]) [nM]	EC50 (S1P1 [3]) [nM]	EC50 (hS1P1R (hEdg1)) [nM]	Compound
≤ 100	≤ 100	≤ 100	–	NC(CO)COc1ccc(-c2noc(-c3cn4cc(C(F)(F)F)cc(Cl)c4n3)n2)c(Cl)c1 (stereo not shown) [Example 213, 2-amino-3-[(3-chloro-4-{5-[8-chloro-6-(trifluoromethyl)imidazo[1,2-a]pyridin-2-yl]-1,2,4-oxadiazol-3-yl}phenyl)oxy]propan-1-ol]
–	–	≤ 100	100 to 500	OCC(O)COc1cc(Cl)c(-c2noc(-c3cn4cc(I)cc(Cl)c4n3)n2)cc1Cl (stereo not shown) [Example 204, 3-({2,5-dichloro-4-[5-(8-chloro-6-iodoimidazo[1,2-a]pyridin-2-yl)-1,2,4-oxadiazol-3-yl]phenyl}oxy)propane-1,2-diol]
≤ 100	≤ 100	≤ 100	–	Cc1cc(-c2nnc(-c3cn4cc(C(F)(F)F)cc(Cl)c4n3)s2)cc(C)c1OCC(O)CO (stereo not shown) [Example 246, 3-[(4-{5-[8-chloro-6-(trifluoromethyl)imidazo[1,2-a]pyridin-2-yl]-1,3,4-thiadiazol-2-yl}-2,6-dimethylphenyl)oxy]propane-1,2-diol]
100 to 500	≤ 100	≤ 100	–	OCC(O)COc1cc(Cl)c(-c2nnc(-c3cn4cc(C(F)(F)F)cc(Cl)c4n3)s2)cc1F (stereo not shown) [Example 247, 3-[(5-chloro-4-{5-[8-chloro-6-(trifluoromethyl)imidazo[1,2-a]pyridin-2-yl]-1,3,4-thiadiazol-2-yl}-2-fluorophenyl)oxy]propane-1,2-diol]
–	–	≤ 100	1000 to 5000	O=C(O)CCc1cc(Cl)c(-c2nnc(-c3cn4cc(I)cc(Cl)c4n3)s2)cc1F [Example 207, 3-{5-chloro-4-[5-(8-chloro-6-iodoimidazo[1,2-a]pyridin-2-yl)-1,3,4-thiadiazol-2-yl]-2-fluorophenyl}propanoic acid]
–	–	≤ 100	500 to 1000	O=C(O)CCc1cc(Cl)c(-c2nc(-c3cn4cc(I)cc(Cl)c4n3)no2)cc1F [Example 240, 3-{5-chloro-4-[3-(8-chloro-6-iodoimidazo[1,2-a]pyridin-2-yl)-1,2,4-oxadiazol-5-yl]-2-fluorophenyl}propanoic acid]
–	–	≤ 100	1000 to 5000	CC(Cc1cc(Cl)c(-c2nnc(-c3cn4cc(C(F)(F)F)cc(Cl)c4n3)s2)cc1Cl)C(=O)O (stereo not shown) [Example 285, 3-(2,5-dichloro-4-{5-[8-chloro-6-(trifluoromethyl)imidazo[1,2-a]pyridin-2-yl]-1,3,4-thiadiazol-2-yl}phenyl)-2-methylpropanoic acid]
≤ 100	–	≤ 100	–	NC(CO)COc1cc(Cl)c(-c2noc(-c3cn4cc(C(F)(F)F)cc(Cl)c4n3)n2)cc1Cl (stereo not shown) [Example 303, 2-amino-3-[(2,5-dichloro-4-{5-[8-chloro-6-(trifluoromethyl)imidazo[1,2-a]pyridin-2-yl]-1,2,4-oxadiazol-3-yl}phenyl)oxy]propan-1-ol]
–	–	≤ 100	1000 to 5000	O=C(O)CCc1c(Cl)cc(-c2nnc(-c3cn4cc(C(F)(F)F)cc(Cl)c4n3)s2)cc1Cl [Example 206, 3-(2,6-dichloro-4-{5-[8-chloro-6-(trifluoromethyl)imidazo[1,2-a]pyridin-2-yl]-1,3,4-thiadiazol-2-yl}phenyl)propanoic acid]
–	–	≤ 100	≤ 100	OCC(O)COc1c(Cl)cc(-c2noc(-c3cn4cc(C(F)(F)F)cc(Cl)c4n3)n2)cc1Cl (stereo not shown) [Example 209, 3-[(2,6-dichloro-4-{5-[8-chloro-6-(trifluoromethyl)imidazo[1,2-a]pyridin-2-yl]-1,2,4-oxadiazol-3-yl}phenyl)oxy]propane-1,2-diol]
≤ 100	–	≤ 100	–	NC(CO)COc1cc(Cl)c(-c2nnc(-c3cn4cc(C(F)(F)F)cc(Cl)c4n3)s2)cc1F (stereo not shown) [Example 321, 2-amino-3-[(5-chloro-4-{5-[8-chloro-6-(trifluoromethyl)imidazo[1,2-a]pyridin-2-yl]-1,3,4-thiadiazol-2-yl}-2-fluorophenyl)oxy]propan-1-ol]
